The results in this text go back to paper PMC3225327 (Journal of Biomedical Science, 2011).

Structures are written as SMILES.

One data set has as its system PDE1. Description: Inhibition of PDE1 activity, two-step procedure. It counts as biochemical. Conditions: homogenate of guinea pig lungs or hearts. The method, then:
Activities of PDE1~5 in the homogenate of guinea pig lungs or hearts were measured by a two-step procedure according to the previous method, using cAMP with [^3H]-cAMP or cGMP with [^3H]-cGMP as substrates. […] The reagents and homogenate were mixed on ice, and the reaction was initiated by transferring the mixture to a water bath at 37°C. Following a 30-min incubation, the reaction was stopped by transferring the reaction vessel to a bath of boiling water for 3 min. After cooling on ice, 20 μl of a 1 mg/ml solution of Crotalus atrox snake venom was added to the reaction mixture, and the mixture was incubated at 37°C for 10 min. Unreacted [^3H]-cAMP or [^3H]-cGMP was removed by the addition of 500 μl of a 1-in-1 Tris-HCl (40 mM) buffer suspension of Dowex resin (1 × 8-200) with incubation on ice for 30 min. Each tube was then centrifuged at 3700 g for 2 min, and 150 μl of the supernatant was removed for liquid scintillation counting. […] The total protein in each fraction used was assayed according to a previous method. PDE activities are reported as nmol/mg/min.

For data set [1], the system named is ovalbumin-induced airway hyperresponsiveness. Briefly: Airway hyperresponsiveness, FlexiVent (RL, Cdyn) in OVA-sensitized and challenged mice. The format is in vivo, BABL/c mice. As for the experimental part: (§1) According to the schedule (Figure 1), ten female BABL/c mice in each group were sensitized by an intraperitoneal (i.p.) injection of 20 μg of OVA emulsified in 2.25 mg of an aluminum hydroxide gel, prepared from aluminum sulfate hexadecahydrate, in a total volume of 100 μl on days 0 and 14. On day 21, these mice were injected with (i.p.) 100 μl of a mixture of 1% OVA and Freund's complete adjuvant (1:1). Mice were challenged via the airway using 1% OVA in saline for 30 min on days 28, 29, and 30 by ultrasonic nebulization. After the last of OVA challenges, AHR was assessed on day 32 (48 h after 1% OVA provocation) in each group. […] For comparison, sham-treated mice were challenged with saline instead of 1% OVA (non-challenged). […] AHR was assessed using two methods: (1) in anesthetized ventilated mice, AHR was assessed as previously described by measuring changes in the airway resistance (RL, cmH2O/ml/sec) and lung dynamic compliance (Cdyn, ml/cmH2O) after challenge with aerosolized methacholine (MCh, 0.78~25 mg/ml) using the FlexiVent system (SCIREQ, Montreal, Quebec, Canada). Anesthetized (urethane 600 mg/kg and chloralose 120 mg/kg, i.p.), tracheostomized (stainless-steel cannula, 18 G) mice were mechanically ventilated (at 150 breaths/min, with a tidal volume of 10 ml/kg, positive end-expiratory pressure of 3 cmH2O). (2) in unrestrained animals by barometric plethysmography using a whole-body plethysmograph (WBP) and analyzed using software of Life Science Suite P3 Analysis Modules (Gould, LDS Test and Measurement LLC, Valley View, OH, USA). Mice were placed into the main chamber of the WBP, and the baseline enhanced pause (Penh) value was determined.

Data set [2] shares this test system. Description: Airway hyperresponsiveness, barometric plethysmography (Penh) in OVA-sensitized and challenged mice. The format is in vivo, BABL/c mice. The method, then:
as §1

The subject of data set [3] is duration of xylazine/ketamine-induced anesthesia. Briefly: Xylazine/ketamine-induced anesthesia. Conditions: 10~100 μmol/kg s.c., 1 h before anesthesia. The method, then: After loss of the righting reflex (i.e., when a mouse remained on its back and no longer spontaneously righted itself to a prone position), the duration of anesthesia was measured until its return as the endpoint.

Where [4] appears, read: 3~30 μmol/kg p.o., MCh 6.25~25 mg/ml.

In the data set with PDE1, `COc1cc(O)c2c(c1)O[C@H](c1ccc(OC)c(OC)c1)CC2=O` [HDME, hesperetin-7,3'-O-dimethylether] had a half-inhibitory concentration (IC50) of 22.1 ± 6.4 µM. Moreover, the “RL value at the baseline” value is reported as 1.06 ± 0.05 cmH2O/ml/s in data set [1] (3 μmol/kg p.o.), 1.08 ± 0.06 cmH2O/ml/s in data set [1] (10 μmol/kg p.o.) and 1.09 ± 0.07 cmH2O/ml/s in data set [1] (30 μmol/kg p.o.). Also, the entries for the “RL value of PBS nebulization” value in data set [1] (3 μmol/kg p.o.), in data set [1] (10 μmol/kg p.o.) and in data set [1] (30 μmol/kg p.o.) were 1.10 ± 0.07 cmH2O/ml/s, 1.06 ± 0.04 cmH2O/ml/s and 1.07 ± 0.06 cmH2O/ml/s, respectively. In addition, the “effect on MCh-induced decrease of lung dynamic compliance (Cdyn)” value in data set [1] (setting [4]) is recorded as “significantly suppressed”. Also, the “effect on MCh-induced increase of airway resistance (RL)” value in data set [1] (setting [4]) was “significantly suppressed”. For the same compound, the “Penh value at the baseline” value worked out at 2.45 ± 0.04 in data set [2] (3 μmol/kg p.o.), 2.36 ± 0.05 in data set [2] (10 μmol/kg p.o.) and 2.43 ± 0.03 in data set [2] (30 μmol/kg p.o.). Moreover, the “Penh value with PBS nebulization” value came out at 2.43 ± 0.05 in data set [2] (3 μmol/kg p.o.), 2.38 ± 0.06 in data set [2] (10 μmol/kg p.o.) and 2.44 ± 0.06 in data set [2] (30 μmol/kg p.o.). In data set [2] (3~30 μmol/kg p.o., 25 and 50 mg/ml MCh), the “effect on enhancement of Penh values induced by MCh” value was “dose-dependently and significantly attenuated”. Besides, the “effect on duration of xylazine/ketamine-induced anesthesia” value in data set [3] is on record as “did not significantly influnce”.

As a reminder, the IC50 is the concentration needed to halve the response being measured.
